Data taken from patent publication US10597378B2 (priority 2017, dated 2020).

Experiments:
B6 mice = assay: Charcoal meal test (gastrointestinal transit); conditions: equianalgesic doses
Experimental: (§1) B6 mice were fasted for at least 16 h before the study with free access to water. In a charcoal meal test, various doses of drugs were administered to the mice 30 min prior to the administration of an aqueous activated charcoal suspension (10% activated charcoal+5% gum Arabic; 0.3 mL). After 30 min, the mice were euthanized by intraperitoneal administration of a ketamine/xylazine cocktail (Sigma) followed by cervical dislocation and the total length of migration of the charcoal meal was measured from the pylorus to the ileocecal junction of the small intestine. The length of the intestine from pylorus to the caecum and the distance traveled by the charcoal were measured. The migration index was expressed as percentage of the distance traveled by the peristaltic charcoal meal relative to the total length of the small intestine, calculated according to the following formula. % of Gastrointestinal transit=Distance Travelled by Charcoal Meal/Full Length of the Small Intestine×100%
(§2) Gastrointestinal propulsion was calculated as the percentage of the distance travelled by the charcoal meal relative to the total length of the small intestine, to control for individual variations. The percentage inhibition relative to the control was also calculated as: % Gastrointestinal Inhibition (GI)=(Control group−Drug-treated group)/Control group×100% […]

[1] = Charcoal meal test (gastrointestinal transit); conditions: B6, mouse, in vivo, sc
Experimental: as §1, §2

[2] = tested on: wild-type C57BL/6 (B6) mice; assay: Tail flick test (acute thermal pain); format: in vivo, mouse
MOR = MOR (Homo sapiens, UniProt P35372); format: cell-based; design: host or cells: CHO-K1 (CHO-K1-MOR)
human mu-opioid receptor = target: T1, human mu-opioid receptor (Homo sapiens, UniProt P35372); assay: cell-based; format: cell-based
T1 construct: expressed in transfected cells; host or cells: HEK-293 (HEK-MOR), kept under G418
Experimental: (§3) Cells (72,000 per well) were plated in 100 μl/well of DMEM in 96-well solid-bottom white plates (GIBCO) and 50 μl/well of drug in HBSS in the presence of forskolin and 3-isobutyl-1-methylxanthine at final concentrations of 1 μM and 500 μM, respectively. After 30 min of incubation at room temperature, the concentration of cyclic adenosine monophosphate was determined using a LANCE Ultra cAMP Assay kit (PerkinElmer).
As MOR belongs to the GPCR family, activation of MOR leads to a decrease in intracellular cAMP level.

human NOP receptor = target: T2, human NOP receptor (Homo sapiens, UniProt P41146); assay: cAMP assay in CHO-K1 cells expressing human NOP (CHO-K1-NOP); format: cell-based; conditions: read-out: EC50 in decreasing the cAMP level
T2 construct: expressed in transfected cells; host or cells: CHO-K1 (CHO-K1-NOP)
Excerpt: In an exemplary in vitro assay for identifying NOP agonists, cells are engineered to overexpress NOP and are designed to detect changes in intracellular cAMP levels in response to agonist stimulation of the receptor. The enzyme donor-cAMP complex complements with the acceptor and forms an active enzyme. The active enzyme subsequently hydrolyzes a substrate to produce a chemiluminescent signal that is directly proportional to the amount of cAMP in the cells. These cells have thus been modified to work in an agonist mode.
as §3
It was measured using the PathHunter enzyme complementation assay in CHO-K1 cells expressing human NOP (CHO-K1-NOP).

mice = assay: Tolerance and cross-tolerance, tail-flick test after 5 days twice-daily treatment; format: in vivo, mouse; conditions: day 6, equianalgesic dose

T1 sequence (P35372 whole entry): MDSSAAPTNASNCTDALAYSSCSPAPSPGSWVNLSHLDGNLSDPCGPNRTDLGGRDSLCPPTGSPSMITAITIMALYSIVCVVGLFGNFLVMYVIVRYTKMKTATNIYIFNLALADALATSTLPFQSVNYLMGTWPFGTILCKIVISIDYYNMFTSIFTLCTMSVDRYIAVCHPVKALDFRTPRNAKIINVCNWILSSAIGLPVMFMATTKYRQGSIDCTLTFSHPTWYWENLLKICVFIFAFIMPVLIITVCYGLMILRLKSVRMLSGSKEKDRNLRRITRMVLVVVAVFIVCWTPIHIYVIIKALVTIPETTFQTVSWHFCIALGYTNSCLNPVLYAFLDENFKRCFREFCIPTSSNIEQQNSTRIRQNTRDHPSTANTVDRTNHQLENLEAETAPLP
T2 sequence (P41146 whole entry): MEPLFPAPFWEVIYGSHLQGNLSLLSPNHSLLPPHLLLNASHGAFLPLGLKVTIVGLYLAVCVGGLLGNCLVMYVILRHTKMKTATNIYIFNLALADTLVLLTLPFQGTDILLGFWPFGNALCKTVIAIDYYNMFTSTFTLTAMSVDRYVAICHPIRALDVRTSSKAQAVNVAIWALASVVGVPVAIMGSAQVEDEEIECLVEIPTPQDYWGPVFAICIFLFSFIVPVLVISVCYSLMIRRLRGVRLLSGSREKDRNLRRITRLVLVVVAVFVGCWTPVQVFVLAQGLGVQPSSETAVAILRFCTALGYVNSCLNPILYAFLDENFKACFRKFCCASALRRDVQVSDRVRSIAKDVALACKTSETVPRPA
Chain of MOR (P35372 whole entry): as the sequence (P35372 whole entry) above

For `CN1CCc2ccccc2C1CNC(=O)c1ccc(Cl)c(Cl)c1` (stereo not shown) [Compound 67, 3,4-Dichloro-N-[(2-methyl-1,2,3,4-tetrahydro-1-isoquinolinyl)methyl]benzamide], the gastrointestinal dysfunction (B6 mice) was “less gastrointestinal dysfunction than morphine”, the ED50 at 60 min [1] was 1.6 mg/kg and the ED50 ([2]; Mus musculus, sc, single subcutaneous injection, read-out: ED50 of antinociception) was 0.78 mg/kg. For the same molecule, the “time at which analgesic effects were exerted after acute injection” value ([2]; equi-antinociceptive doses, B6 mice) was 10 min, the “antinociception (% of MPE, AUC)” value ([2]; single dose subcutaneous injection, 30-120 min) was “produced equi-antinociceptive effects at doses of 0.6-1.8 mg/kg” and the MOR internalization (MOR) was “approximately two-fold that of the maximal responses of morphine”. The EC50 (human mu-opioid receptor) was 0.63 nM, the cAMP production (human mu-opioid receptor) was “significantly decreased cAMP production” and the EC50 (human NOP receptor) was 2.2 nM. For the same molecule, the “antinociceptive effects on challenge in morphine-tolerant mice” value (mice) was “significant increase in antinociceptive effects”.
